Among the data in PubChem BioAssay (NCI) are TGI and GI50 values, retold here.

Each structure is given as a SMILES string.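 Test compounds were applied to cells in 96-well plates for 48 hours at 5 doses. The concentration for 50% growth inhibition is given as GI50. Definition used: TGI = concentration required for complete inhibition of growth.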

Common to all, as to test: NCI anticancer screen, dose series, 48 h
Assay [1] concerns HCC-2998 colon.
Assay [2] deals with HS 578T breast.
In assay [3] the test system is MDA-MB-231 breast.
The test system of assay [4] is NCI-H23 lung.
Assay [5] relates to NCI-H460 lung.
The subject of assay [6] is OVCAR-4 ovarian.
The subject of assay [7] is RPMI-8226 leukemia.
The test system of assay [8] is SK-OV-3 ovarian.
Assay [9] relates to U251 CNS.
In assay [10] the test system is UO-31 renal.

Regarding `NS(=O)(=O)c1ccc(/C=C/c2ccc(F)cc2)cc1`, the TGI is > 100 µM in assay [1]; 77.7 µM in assay [2]; 50.7 µM in assay [3]; > 100 µM in assay [4]; > 100 µM in assay [5]; > 100 µM in assay [6]. Also, the TGI is > 100 µM in assay [7], 57.6 µM in assay [8], 45.7 µM in [9] and 61.1 µM in assay [10]. For the same molecule, the GI50 in assay [2] was 23.7 µM; in assay [4], 45.1 µM; in [6], 34.4 µM; in assay [7], 42.3 µM; in assay [9], 7.93 µM.

Turning to `CC(C)CNc1nc2ncnc(N)c2[nH]1`, the TGI in assay [1], in assay [2], in [3], in assay [4], in [5] and in assay [6] was > 100 µM throughout. Further, the TGI in assay [7], in assay [8], in assay [9] and in assay [10] was > 100 µM in each case.

With `COC(=O)C1CCC(=S)N1C(=O)c1ccccc1` (configuration not stated), the TGI in assay [1], in assay [2], in assay [3], in [4], in [5] and in [6] was > 100 µM throughout. Besides, the TGI in [7], in [8], in assay [9] and in assay [10] was > 100 µM each time.

Turning to `OCC(O)C(O)C(O)C(O)c1nc2ccc(Cl)cc2[nH]1` (configuration not stated), the TGI in assay [1], in [2], in [3], in assay [4], in assay [5] and in assay [6] was > 100 µM in each case. For the same molecule, the TGI in assay [7], in assay [8], in assay [9] and in [10] was > 100 µM each time.

Regarding `O=S(=O)(c1ccc(NC2=NC(c3ccc(O)cc3)(c3ccccc3O)c3ccccc32)cc1)c1ccc(NC2=NC(c3ccc(O)cc3)(c3ccccc3O)c3ccccc32)cc1` (configuration not stated), the TGI in assay [1] was 15.4 µM; in assay [2], > 100 µM; in assay [3], > 44.6 µM; in [4] it was 8.01 µM; in assay [5], 47.5 µM; in assay [6], 13.7 µM. The TGI in assay [7] is > 100 µM; in assay [8], > 73.3 µM; in assay [9] it was > 100 µM; in assay [10] it was > 100 µM.

In the case of `Cc1ccc(OCC2OC(n3cnc4c(Cl)nc(N)nc43)CC2Oc2ccc(C)cc2)cc1` (configuration not stated), the TGI in [1] was > 57.4 µM; in assay [2], > 100 µM; in assay [3], > 100 µM; in assay [4], 49.7 µM; in assay [5] it was > 100 µM; in assay [6] it was 61.3 µM. The TGI in [7] is > 100 µM; in assay [8] it was > 100 µM; in assay [9] it was > 100 µM; in assay [10] it was 13.3 µM.

As for `CCCCC(=O)c1c(O)nc2sccn2c1=O`, the TGI in assay [1], in assay [2], in [3], in assay [4], in [5] and in assay [6] was > 10 µM throughout. For the same molecule, the TGI in assay [7], in assay [8], in assay [9] and in assay [10] was > 10 µM each time.

Take `Cc1cc(F)ccc1S(=O)(=O)Nc1cc(-c2c(O)ccc3ccccc23)c(O)c2ccccc12`: the GI50 in assay [1] was 2.17 µM; in [2] it was 2.6 µM; in [3], 2.64 µM; in assay [4] it was 2.77 µM; in [5], 2.92 µM; in assay [6], 2.21 µM. The GI50 in [7] is 2.89 µM; in [8], 2.37 µM; in assay [9], 3.67 µM; in [10], 2.38 µM. For the same molecule, the TGI is 4.38 µM in [1]; 10.2 µM in [2]; 13.8 µM in assay [3]; 13.3 µM in assay [4]; 11.4 µM in assay [5]; 6.66 µM in assay [6]. Also, the TGI came out at 24 µM in assay [7], 11.6 µM in [8], 15.5 µM in [9] and 13.3 µM in [10].

As for `N#CC1(C#N)NC(c2cccs2)C(C#N)(C#N)NC1c1cccs1` (configuration not stated), the TGI in [1] was 93.3 µM; in assay [2] it was > 100 µM; in [3], > 100 µM; in assay [4], > 100 µM; in assay [5] it was > 100 µM; in assay [6], > 100 µM. In addition, the TGI in [7] was 73.1 µM; in [8] it was > 100 µM; in assay [9], 64.5 µM; in [10], > 100 µM.

For the molecule `OC1(c2ccccc2)CCN(Cc2c[nH]c3ccccc23)CC1`, the TGI in [1] was 31.6 µM; in assay [2], > 100 µM; in assay [3] it was > 100 µM; in [4], > 100 µM; in assay [5] it was > 100 µM; in assay [6] it was > 100 µM. Further, the TGI in assay [7], in assay [8], in [9] and in assay [10] was > 100 µM each time.

With `CCNCCCn1c2c(c3ccc(Cl)cc3c1=O)C(=O)c1cc(OC)cnc1-2`, the GI50 in assay [1] was 1.28 µM; in [2], 1.74 µM; in [3], 1.5 µM; in assay [4] it was 0.539 µM; in assay [6], 0.542 µM; in [7], 1.25 µM. The GI50 in assay [8] is 0.475 µM; in [9], 0.219 µM; in assay [10], 0.543 µM. For the same molecule, the TGI in assay [1] is 2.99 µM; in assay [2] it was 4.31 µM; in assay [3], 3.23 µM; in assay [4], 2.47 µM; in assay [6], 2.4 µM; in assay [7], 3.65 µM. The figures for the TGI in assay [8], in assay [9] and in [10] were 1.94 µM, 1.73 µM and 2.37 µM, respectively.

For `Cc1ccc(OCC2OC(n3cnc4nc(N)nc(Cl)c43)CC2Oc2ccc(C)cc2)cc1` (configuration not stated), the TGI is 33.6 µM in [1]; 45.6 µM in [2]; > 100 µM in assay [3]; 36.9 µM in assay [4]; 97 µM in [5]; > 100 µM in [6]. Moreover, the TGI in assay [7] is 56.5 µM; in assay [8], > 100 µM; in [9], > 100 µM.
